# Laboratory results as given in the supplement of paper PMC8671470.
# Key:
# Assay in all cases: cell viability (% survival relative to DMSO control, bortezomib = 0%); higher = less cytotoxic
# Details in all cases: 72 h
# [1] = test system: MOLM-13
# In short: (§1)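 Fifteen myeloid leukaemia cell lines (10 AML, 5 CML) were seeded at a density titrated to the linear growth range into 384-well plates pre-printed with compounds at 1, 10, 100, 1000 or 10000 nM in duplicate. Plates were incubated for 72 h at 37 °C with 5% CO2. Viability was then read by CellTiter-Glo luminescence. Each value is percent survival averaged over the duplicates, with vehicle set to 100% and a 10 µM positive control to 0%.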
# [2] = test system: MV4-11
# In short: as §1
# [3] = test system: THP-1
# In short: as §1
# [4] = test system: KG-1
# In short: as §1
Compound,cell viability ([1]; 1 nM) [%],cell viability ([1]; 10 nM) [%],cell viability ([1]; 100 nM) [%],cell viability ([1]; 1000 nM) [%],cell viability ([1]; 10000 nM) [%],cell viability ([2]; 1 nM) [%],cell viability ([2]; 10 nM) [%],cell viability ([2]; 100 nM) [%],cell viability ([2]; 1000 nM) [%],cell viability ([2]; 10000 nM) [%],cell viability ([3]; 1 nM) [%],cell viability ([3]; 10 nM) [%],cell viability ([3]; 100 nM) [%],cell viability ([3]; 1000 nM) [%],cell viability ([3]; 10000 nM) [%],cell viability ([4]; 1 nM) [%],cell viability ([4]; 10 nM) [%],cell viability ([4]; 100 nM) [%],cell viability ([4]; 1000 nM) [%],cell viability ([4]; 10000 nM) [%]
C[C@](N)(Cc1ccc(O)cc1)C(=O)O [Metirosine],94.4,81.5,82.9,94.6,95.7,107,87.3,92.3,107,101,98.3,99.5,105,94.3,101,105,93.9,94.7,89.3,107
CCCCN1C[C@H](O)[C@@H](O)[C@H](O)[C@H]1CO [Miglustat],90,102,90.7,93.9,90.8,99.2,91.3,103,94.4,92.2,91.1,93.3,89.6,102,94.7,92.6,102,94.8,103,93.2
CCCCC/C=C\C/C=C\C/C=C\C/C=C\CCCCN1C(=O)C=CC1=O [N-Arachidonylmaleimide],98.8,109,101,110,88,82.1,97.8,106,93.2,95.3,102,99.2,101,97.7,96.3,98.9,97.9,101,93.1,103
CCCCCCCCCCC[C@@H](C[C@@H]1OC(=O)[C@H]1CCCCCC)OC(=O)[C@H](CC(C)C)NC=O [Orlistat],140,104,87.9,65.3,95.2,107,97.2,71.6,109,79.8,97.5,99,85.2,95,94.6,96.2,99.6,96.4,100,53.3
COc1ccc(C(=O)Nc2c(Cl)cncc2Cl)cc1OC1CCCC1 [Piclamilast],89.2,110,67.4,103,88.1,92.5,110,92.8,118,114,94,104,97.6,102,109,97.7,102,86,99.2,104
O=C(NNc1ccccc1)c1ccncc1 [PluriSln 1],80.5,92,96.7,87.1,25.4,92.1,99.2,99.3,109,89.4,97.2,97.1,100,108,95.4,88.5,104,102,98.4,62.8
CC(C)c1nc(CN(C)C(=O)N[C@H](C(=O)N[C@@H](Cc2ccccc2)C[C@H](O)[C@H](Cc2ccccc2)NC(=O)OCc2cncs2)C(C)C)cs1 [Ritonavir],104,104,95.3,96.2,99.3,120,98.1,95.9,87.2,71.9,97.1,91.7,107,97.3,88.2,95.7,96.8,108,101,71.1
O=C(O)c1cc(N=Nc2ccc(S(=O)(=O)Nc3ccccn3)cc2)ccc1O [Sulfasalazine],105,102,113,84.6,136,101,89.1,112,95.9,103,107,101,106,101,106,103,89,112,43.4,128
O[C@H]1[C@H]2[C@H](O)CCCN2C[C@H]1O [Swainsonine],97.8,94.2,102,87.7,85.6,102,113,87.2,69.8,69.3,102,102,106,97.8,101,108,107,92.2,87.9,93.1
